Laboratory results reported in patent US20240299400A1, “Transcription Factor GLI1 Inhibitors and Uses Thereof” (University of Connecticut, priority 2023, published 2024).

How the values were obtained:
[1] = system: GLI1 mRNA expression; experiment: RT-qPCR GLI1 mRNA expression in Sufu-KO MEFs; assay type: cell-based, mouse; settings: for IC50: Mus musculus, Ave ± SEM, read-out: RT-qPCR, IC50 Sufu-KO
Description: (§1) ASZ001 and Sufu-KO cells were seeded in 96-well plates (10,000/well, 100 μL) and incubated overnight under growth conditions. On the second day, ‘growth’ media was removed and replaced by ‘assay’ media (100 μL). On the third day, cells were treated with a serial dilution of drugs or DMSO for 48 h. mRNA expression was determined through Taqman Fast Cells-to-CT Kit (#4399003) per the manufacturer's instructions. In brief, cells were washed with chilled PBS, then mixed with lysis solution containing DNase I and incubated at RT for 5 min. Stop solution was then added to quench the lysis reagents. cDNA was then synthesized through a BioRad MyCycler following addition of reverse transcriptase. Finally, the cDNA was amplified through an ABI 7500 system following addition of Taqman Fast Universal PCR Master Mix and Taqman Gene Expression Primer. Relative gene expression levels were computed by the ΔΔCt method. Values represent mRNA expression relative to DMSO control (set at 1.0). Data were analyzed using GraphPad Prism, and IC50 values are the mean±SEM for at least two separate experiments performed in triplicate. Primers used are as follows: mouse ActB (Mm00607939_s1); mouse GLI1 (Mm00494645_ml); mouse Gli2 (Mm01293117_ml); mouse Ptch1 (Mm00436026_ml); mouse Hhip (Mm00469580_ml).

[2] = system: GLI1 mRNA expression; experiment: RT-qPCR GLI1 mRNA expression in ASZ001 BCC cells; assay type: cell-based, mouse; settings: Mus musculus, Ave ± SEM, read-out: RT-qPCR, IC50 ASZ001
Description: as §1

[3] = molecular target: T1, GLI1-ZFD (Homo sapiens, UniProt P08151); experiment: Microscale thermophoresis (MST) binding to GLI1-ZFD; settings: for binding to GLI1 (in words): MST binding assay; for Kd: Table 7, Ave ± SEM
T1 construct: GLI1-ZFD Expression and Purification; made in house
T1 sequence (P08151 234-388 limits assumed): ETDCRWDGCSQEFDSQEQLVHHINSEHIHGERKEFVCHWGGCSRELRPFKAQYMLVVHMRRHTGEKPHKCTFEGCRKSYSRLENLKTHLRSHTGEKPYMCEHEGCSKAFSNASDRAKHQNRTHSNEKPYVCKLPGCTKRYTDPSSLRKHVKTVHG
Description: The protein expression and purification experiments followed the previous reported procedures [C. A. Maschinot, et al., Synthesis and evaluation of third generation vitamin D3 analogues as inhibitors of hedgehog signaling. Euro. J. Med. Chem. 162 (2019) 495-506].
GLI1 protein labeling was performed through the Monolith Protein Labeling Kit RED-NHS 2nd Generation (Nanotemper #MO-LO11) per the manufacturer's instructions. Briefly, GLI1 (100 μg, 1 mg/mL) underwent buffer exchange to remove incompatible ingredients like Tris or DTT. Proteins in the Labeling Buffer were incubated with freshly prepared dye (˜3-fold excess of dye) for 30 min at RT in the dark. Unreacted ‘free’ dye was removed by a gel-filtration column. Protein concentration and degree-of-labeling were calculated by measuring absorption at 280 nm and 650 nm. For each assay, 200 nM GLI1 in MST Buffer was mixed with compound dilution in DMSO (DMSO<5%, v/v). The mixture was then loaded to a capillary and the thermophoresis was subsequently determined through Monolith NT.115 station. Results were analyzed by MO.Affinity Analysis software and visualized by Graphpad Prism. MST Buffer: 50 mM HEPES, pH 8.3, 100 mM NaCl.

[4] = system: ASZ001 cells; experiment: MTS anti-proliferative assay in ASZ001 cells; assay type: cell-based, murine; settings: Mus musculus, ASZ001, Ave ± SEM
Description: Cell viability was assessed by MTS proliferation assay kit (Promega) per manufacturer's protocol. Briefly, 2×10^4 cells were plated in a 96-well plate in 100 μL growth medium to make the cell population at ˜80% confluence. After 24 h, 1 μL drug solution was added to each well. DMSO was used as vehicle compound. After 48 h incubation (37° C., 5% CO2), 20 μL of freshly prepared 3-(4,5-dimethylthiazol-2-yl)-5-(3-carboxymethoxyphenyl)-2-(4-sulfophenyl)-2H-tetrazolium (MTS)/phenazine methosulfate (PMS) solution was added to each well, and the plate was returned to the incubator for 1 h. Absorbance at 490 nm was recorded, and the result was analyzed by GraphPad Prism 5. GI50 values represent mean±SEM for at least two separate experiments performed in triplicate.

CCN(CC)c1ccccc1C(Nc1ccccn1)c1ccc2ccc(C)nc2c1O (stereo not drawn) [Compound 35, 7-((2-Diethylaminophenyl)(pyridin-2-ylamino)methyl)-2-methylquinolin-8-ol]
IC50 ([1]; Table 7, GLI1 mRNA): 9 ± 2.2 µM
IC50 ([2]; ASZ001, Table 7, GLI1 mRNA): 15.8 ± 6.3 µM
binding to GLI1 (in words) [3]: do not bind GLI1
Kd [3]: > 125 µM
GI50 ([4]; Table 7, 48 h): 29.3 ± 4.9 µM

Cc1ccc2ccc(C(Nc3ccccn3)c3ccc(-n4ccnc4C)cc3)c(O)c2n1 (stereo not drawn) [Compound 51, 7-((4-(2-Methyl-1H-imidazol-1-yl)phenyl)(pyridin-2-ylamino)methyl)-2-methylquinolin-8-ol]
IC50 ([1]; Table 7, GLI1 mRNA): 13.6 ± 3.5 µM
IC50 ([2]; ASZ001, Table 7, GLI1 mRNA): 5.3 ± 1.2 µM
GI50 ([4]; Table 7, 48 h): > 100 µM

CCN(CC)c1ccc(C(Nc2ccccn2)c2c(O)ccc3cccnc23)cc1 (stereo not drawn) [Compound 19, 8-((4-Diethylaminophenyl)(pyridin-2-ylamino)methyl)quinolin-7-ol]
IC50 ([1]; Table 5, GLI1 mRNA): > 25 µM
IC50 ([2]; ASZ001, Table 5, GLI1 mRNA): 14.6 ± 1.4 µM
GI50 ([4]; Table 5, 48 h): > 100 µM

Cc1ccc2ccc(C(Nc3ccccn3)c3cccc(F)c3)c(O)c2n1 (stereo not drawn) [Compound 37, 7-((3-Fluorophenyl)(pyridin-2-ylamino)methyl)-2-methylquinolin-8-ol]
IC50 ([1]; Table 7, GLI1 mRNA): 5.3 ± 1.3 µM
IC50 ([2]; ASZ001, Table 7, GLI1 mRNA): 19.2 ± 5.5 µM
GI50 ([4]; Table 7, 48 h): 33.1 ± 9.1 µM

CCN(CC)c1ccc(C(Nc2cccnc2)c2ccc3ccc(C)nc3c2O)cc1 (stereo not drawn) [Compound 30, 7-((4-(diethylamino)phenyl)(pyridin-3-ylamino)methyl)-2-methylquinolin-8-ol]
IC50 ([1]; Table 6, GLI1 mRNA): 4.4 ± 1.9 µM
IC50 ([2]; ASZ001, Table 6, GLI1 mRNA): 2.5 ± 0.8 µM
GI50 ([4]; Table 6, 48 h): 81.4 ± 10.7 µM

Cc1ccc2ccc(C(Nc3ccccn3)c3ccc(N4CCc5ccccc54)cc3)c(O)c2n1 (stereo not drawn) [Compound 46, 7-((4-(Indolin-1-yl)phenyl)(pyridin-2-ylamino)methyl)-2-methylquinolin-8-ol]
IC50 ([1]; Table 7, GLI1 mRNA): 4.3 ± 0.8 µM
IC50 ([2]; ASZ001, Table 7, GLI1 mRNA): 15.4 ± 4.7 µM
GI50 ([4]; Table 7, 48 h): 67.9 ± 12.8 µM

Cc1ccc2ccc(C(Nc3ccccn3)c3ccc(-n4cccn4)cc3)c(O)c2n1 (stereo not drawn) [Compound 52, 7-((4-(1H-Pyrazol-1-yl)phenyl)(pyridin-2-ylamino)methyl)-2-methylquinolin-8-ol]
IC50 ([1]; Table 7, GLI1 mRNA): 1.5 ± 0.3 µM
IC50 ([2]; ASZ001, Table 7, GLI1 mRNA): 2.7 ± 0.9 µM
Kd [3]: 10.5 ± 4.4 µM
GI50 ([4]; Table 7, 48 h): 37.2 ± 4.8 µM

CCN(CC)c1ccc(C(Nc2ccccn2)c2ccc3ccc(C)nc3c2OC2CCCC2)cc1 (stereo not drawn) [Compound 22, N-((4-Diethylaminophenyl)(8-cyclopentyloxy-2-methylquinolin-7-yl)methyl)pyridin-2-amine]
anti-GLI1 activity in Sufu-KO cells (in words) [1]: inactive
IC50 ([1]; Table 5, GLI1 mRNA): > 25 µM
IC50 ([2]; ASZ001, Table 5, GLI1 mRNA): 0.54 µM
binding to GLI1 (in words) [3]: did not bind to GLI1
GI50 ([4]; Table 5, 48 h): > 100 µM

Cc1ccc2ccc(C(Nc3ccccn3)c3ccc(N)cc3)c(O)c2n1 (stereo not drawn) [Compound 41, 7-((4-Aminophenyl)(pyridin-2-ylamino)methyl)-2-methylquinolin-8-ol]
IC50 ([1]; Table 7, GLI1 mRNA): 3.5 ± 1 µM
IC50 ([2]; ASZ001, Table 7, GLI1 mRNA): 9.8 ± 1.3 µM
GI50 ([4]; Table 7, 48 h): > 100 µM

CCN(CC)c1ccc(C2c3ccc4ccc(C)nc4c3OC(=O)N2c2ccccn2)cc1 (stereo not drawn) [Compound 27, 4-(4-Diethylaminophenyl)-9-methyl-3-(pyridin-2-yl)-3,4-dihydro-2H-[1,3]oxazino[5,6-h]quinolin-2-one]
IC50 ([1]; Table 5, GLI1 mRNA): > 25 µM
IC50 ([2]; ASZ001, Table 5, GLI1 mRNA): 6.9 ± 1.1 µM
GI50 ([4]; Table 5, 48 h): > 100 µM

CCN(CC)c1ccc(C(C)(Nc2ccccn2)c2ccc3ccc(C)nc3c2O)cc1 (stereo not drawn) [Compound 28, 7-(1-(4-(Diethylamino)phenyl)-1-(pyridin-2-ylamino)ethyl)-2-methylquinolin-8-ol]
IC50 ([1]; Table 5, GLI1 mRNA): 2.1 ± 0.6 µM
IC50 ([2]; ASZ001, Table 5, GLI1 mRNA): 7.2 ± 1.1 µM
GI50 ([4]; Table 5, 48 h): 25.1 ± 4.2 µM

CCN(CC)c1ccc(C(NC)c2cc(C)c3ccc(C)nc3c2O)cc1 (stereo not drawn) [Compound 29, 7-((4-(Diethylamino)phenyl)(methylamino)methyl)-2,5-dimethylquinolin-8-ol]
IC50 ([1]; Table 6, GLI1 mRNA): > 25 µM
IC50 ([2]; ASZ001, Table 6, GLI1 mRNA): 15.4 ± 2.2 µM
GI50 ([4]; Table 6, 48 h): > 100 µM

CCNc1cccc(C(Nc2ccccn2)c2ccc3ccc(C)nc3c2O)c1 (stereo not drawn) [Compound 38, 7-((3-Ethylaminophenyl)(pyridin-2-ylamino)methyl)-2-methylquinolin-8-ol]
IC50 ([1]; Table 7, GLI1 mRNA): 10.6 ± 2.6 µM
IC50 ([2]; ASZ001, Table 7, GLI1 mRNA): 19.3 ± 5 µM
GI50 ([4]; Table 7, 48 h): > 100 µM

CCN(CC)c1ccc(C(Nc2ccccn2)c2ccc3ccc(C)nc3c2OC(C)C)cc1 (stereo not drawn) [Compound 21, N-((4-Diethylaminophenyl)(8-isopropoxy-2-methylquinolin-7-yl)methyl)pyridin-2-amine]
IC50 ([1]; Table 5, GLI1 mRNA): > 25 µM
IC50 ([2]; ASZ001, Table 5, GLI1 mRNA): 0.84 ± 0.06 µM
GI50 ([4]; Table 5, 48 h): > 100 µM

Cc1ccc2ccc(C(Nc3ccccn3)c3ccc(-n4ccnc4)cc3)c(O)c2n1 (stereo not drawn) [Compound 50, 7-((4-(1H-Imidazol-1-yl)phenyl)(pyridin-2-ylamino)methyl)-2-methylquinolin-8-ol]
IC50 ([1]; Table 7, GLI1 mRNA): 3.8 ± 0.7 µM
IC50 ([2]; ASZ001, Table 7, GLI1 mRNA): > 25 µM
Kd [3]: 18.8 ± 5.2 µM
GI50 ([4]; Table 7, 48 h): > 100 µM

Cc1ccc2c(C)cc(C(C)Nc3ccccn3)c(O)c2n1 (stereo not drawn) [Compound 32, 2,5-Dimethyl-7-(1-(pyridin-2-ylamino)ethyl)quinolin-8-ol]
IC50 ([1]; Table 7, GLI1 mRNA): 4.8 ± 1.4 µM
IC50 ([2]; ASZ001, Table 7, GLI1 mRNA): 5.3 ± 1.7 µM
GI50 ([4]; Table 7, 48 h): 29.8 ± 4 µM

CCN(CC)c1ccc(C(Nc2ccccn2)c2ccc3ccccc3c2O)cc1 (stereo not drawn) [Compound 17, 2-((4-Diethylaminophenyl)(pyridin-2-ylamino)methyl)naphthalen-1-ol]
IC50 ([1]; Table 5, GLI1 mRNA): > 25 µM
IC50 ([2]; ASZ001, Table 5, GLI1 mRNA): 9.9 ± 1.4 µM
GI50 ([4]; Table 5, 48 h): > 100 µM

C#CCCOc1c(C(Nc2ccccn2)c2ccc(N(CC)CC)cc2)ccc2ccc(C)nc12 (stereo not drawn) [Compound 23, N-((4-Diethylaminophenyl)(8-(but-3-yn-1-yloxy)-2-methylquinolin-7-yl)methyl)pyridin-2-amine]
IC50 ([1]; Table 5, GLI1 mRNA): > 25 µM
IC50 ([2]; ASZ001, Table 5, GLI1 mRNA): 1.9 ± 0.5 µM
GI50 ([4]; Table 5, 48 h): > 100 µM

CCN(CC)c1ccc(C(Nc2ccccn2)c2ccc3ccc(C)nc3c2OCc2ccccc2)cc1 (stereo not drawn) [Compound 24, N-((4-Diethylaminophenyl)(8-benzyloxy-2-methylquinolin-7-yl)methyl)pyridin-2-amine]
IC50 ([1]; Table 5, GLI1 mRNA): > 25 µM
IC50 ([2]; ASZ001, Table 5, GLI1 mRNA): 1.7 ± 0.3 µM
GI50 ([4]; Table 5, 48 h): > 100 µM

CCN(CC)c1ccc(C(Nc2ccncc2)c2ccc3ccc(C)nc3c2O)cc1 (stereo not drawn) [Compound 31, 7-((4-(diethylamino)phenyl)(pyridin-4-ylamino)methyl)-2-methylquinolin-8-ol]
IC50 ([1]; Table 6, GLI1 mRNA): > 25 µM
IC50 ([2]; ASZ001, Table 6, GLI1 mRNA): 21.4 ± 6.7 µM
GI50 ([4]; Table 6, 48 h): > 100 µM
